From patent US8497278B2, “Imidazo[1,2-a]pyridine compounds” (priority 2008, dated 2013)

Tested on: central benzodiazepine receptors
Experiment: Central benzodiazepine receptor binding (test of Speth et al.)
Settings: 1000 nM of the compound
Experimental: Compounds of the invention were assessed for their binding to the benzodiazepine receptor by the test of Speth et al. [Life Sci. 24, 351 (1979)] for central benzodiazepine receptors and LeFur et al. [Life Sci. 33, 449 (1983)] for peripheral receptors. The compounds were tested first at 1.0E-09, 1.0E-07 and 1.0E-05 M in single determination. […] The specific ligand binding to the receptor is defined as the difference between the total binding and the nonspecific binding determined in the presence of an excess of unlabelled ligand. In each experiment, the respective reference compound was tested concurrently with the test compounds in order to assess the assay suitability. It was tested at several concentrations (for IC50 value determination), and the data were compared with historical values. The assay was rendered valid if suitability criteria were met.
BZD central binding data for the compounds is provided in Table 3, wherein is provided the percent inhibition of central BZD in the presence of 1000 nM of the compound.

Structure (SMILES)	% Inhibition at 1000 nM for CBZD
c1ccc(-c2nc3ccccn3c2Cn2ccnn2)cc1 [Compound 50, 3-((1H-1,2,3-triazol-1-yl)methyl)-2-phenylH-imidazo[1,2-a]pyridine]	+ (percentage of inhibition of central BZD site binding is greater than 50% but less than 80% in the presence of 1000 nM of the compound)
c1ccc(-c2nc3ccccn3c2Cn2nccn2)cc1 [Compound 51, 3-((2H-1,2,3-triazol-2-yl)methyl)-2-phenylH-imidazo[1,2-a]pyridine]	++ (percentage of inhibition of central BZD site binding is greater than 80% in the presence of 1000 nM of the compound)
Fc1ccc(-c2nc3ccccn3c2Cn2cncn2)cc1 [Compound 54, 3-((1H-1,2,4-triazol-1-yl)methyl)-2-(4-fluorophenyl)H-imidazo[1,2-a]pyridine]	++ (percentage of inhibition of central BZD site binding is greater than 80% in the presence of 1000 nM of the compound)
Fc1ccc2nc(-c3ccc(Cl)cc3)c(Cn3cncn3)n2c1 [Compound 55, 3-((1H-1,2,4-triazol-1-yl)methyl)-2-(4-chlorophenyl)-6-fluoroH-imidazo[1,2-a]pyridine]	++ (percentage of inhibition of central BZD site binding is greater than 80% in the presence of 1000 nM of the compound)
Cc1ccc(-c2nc3c(Cl)cc(Cl)cn3c2Cn2cccn2)cc1 [Compound 65, 3-((1H-pyrazol-1-yl)methyl)-6,8-dichloro-2-p-tolylimidazo[1,2-a]pyridine]	++ (percentage of inhibition of central BZD site binding is greater than 80% in the presence of 1000 nM of the compound)
Clc1ccc(-c2nc3ccccn3c2Cn2cncn2)cc1 [Compound 67, 3-((1H-1,2,4-triazol-1-yl)methyl)-2-(4-chlorophenyl)imidazo[1,2-a]pyridine]	++ (percentage of inhibition of central BZD site binding is greater than 80% in the presence of 1000 nM of the compound)
CNC(=O)c1ncnn1Cc1c(-c2ccc(C)cc2)nc2ccc(C)cn12 [Compound 68, 2-(6-Methyl-2-p-tolyl-imidazo[1,2-a]pyridin-3-ylmethyl)-2H-[1,2,4]triazole-3-carboxylic acid methylamide]	++ (percentage of inhibition of central BZD site binding is greater than 80% in the presence of 1000 nM of the compound)
Cc1ccc(-c2nc3ccc(C)cn3c2Cn2ncnc2C(N)=O)cc1 [Compound 69, 2-(6-Methyl-2-p-tolyl-imidazo[1,2-a]pyridin-3-ylmethyl)-2H-[1,2,4]triazole-3-carboxylic acid amide]	++ (percentage of inhibition of central BZD site binding is greater than 80% in the presence of 1000 nM of the compound)
Cc1ccc(-c2nc3ccc(C)cn3c2Cn2ncnc2C(=O)N(C)C)cc1 [Compound 70, 2-(6-Methyl-2-p-tolyl-imidazo[1,2-a]pyridin-3-ylmethyl)-2H-[1,2,4]triazole-3-carboxylic acid dimethylamide]	+ (percentage of inhibition of central BZD site binding is greater than 50% but less than 80% in the presence of 1000 nM of the compound)
Cc1ccc(-c2nc3ccc(C)cn3c2Cn2ccnc2C(=O)N(C)C)cc1 [Compound 71, N,N-Dimethyl-1-((6-methyl-2-p-tolylH-imidazo[1,2-a]pyridin-3-yl)methyl)-1H-imidazole-2-carboxamide]	+ (percentage of inhibition of central BZD site binding is greater than 50% but less than 80% in the presence of 1000 nM of the compound)
CN(C)C(=O)c1ncnn1Cc1c(-c2ccc(Cl)cc2)nc2ccccn12 [Compound 74, 1-((2-(4-chlorophenyl)imidazo[1,2-a]pyridin-3-yl)methyl)-N,N-dimethyl-1H-1,2,4-triazole-5-carboxamide]	++ (percentage of inhibition of central BZD site binding is greater than 80% in the presence of 1000 nM of the compound)
CN(C)C(=O)c1ncn(Cc2c(-c3ccc(Cl)cc3)nc3ccccn23)n1 [Compound 75, 1-((2-(4-chlorophenyl)imidazo[1,2-a]pyridin-3-yl)methyl)-N,N-dimethyl-1H-1,2,4-triazole-3-carboxamide]	++ (percentage of inhibition of central BZD site binding is greater than 80% in the presence of 1000 nM of the compound)
CNC(=O)c1cc(C)nn1Cc1c(-c2ccc(Cl)cc2)nc2ccccn12 [Compound 79, 1-((2-(4-chlorophenyl)imidazo[1,2-a]pyridin-3-yl)methyl)-N,3-dimethyl-1H-pyrazole-5-carboxamide]	+ (percentage of inhibition of central BZD site binding is greater than 50% but less than 80% in the presence of 1000 nM of the compound)
CNC(=O)c1cc(C)n(Cc2c(-c3ccc(Cl)cc3)nc3ccccn23)n1 [Compound 80, 1-((2-(4-chlorophenyl)imidazo[1,2-a]pyridin-3-yl)methyl)-N,5-dimethyl-1H-pyrazole-3-carboxamide]	++ (percentage of inhibition of central BZD site binding is greater than 80% in the presence of 1000 nM of the compound)
CON(C)C(=O)c1ncnn1Cc1c(-c2ccc(Cl)cc2)nc2ccc(Cl)cn12 [Compound 82, 2-[6-Chloro-2-(4-chloro-phenyl)-imidazo[1,2-a]pyridin-3-ylmethyl]-2H-[1,2,4]triazole-3-carboxylic acid methoxy-methyl-amide]	++ (percentage of inhibition of central BZD site binding is greater than 80% in the presence of 1000 nM of the compound)
NC(=O)c1nccn1Cc1c(-c2ccc(Cl)cc2)nc2cccnn12 [Compound 87, 1-((2-(4-chlorophenyl)imidazo[1,2-b]pyridazin-3-yl)methyl)-1H-imidazole-2-carboxamide]	+ (percentage of inhibition of central BZD site binding is greater than 50% but less than 80% in the presence of 1000 nM of the compound)
NC(=O)c1ncnn1Cc1c(-c2ccc(Cl)cc2)nc2cccnn12 [Compound 89, 1-((2-(4-chlorophenyl)imidazo[1,2-b]pyridazin-3-yl)methyl)-1H-1,2,4-triazole-5-carboxamide]	++ (percentage of inhibition of central BZD site binding is greater than 80% in the presence of 1000 nM of the compound)
Cc1ccc(-c2nc3ccc(C)cn3c2Cn2[nH]c(C)cc2=O)cc1 [Compound 91, 1,2-dihydro-3-methyl-1-((6-methyl-2-p-tolyl-H-imidazo[1,2-a]pyridin-3-yl)methyl)pyrazol-5-one]	++ (percentage of inhibition of central BZD site binding is greater than 80% in the presence of 1000 nM of the compound)
Cc1ccc(-c2nc3ccc(C)cn3c2CN2CCN(C)C2=O)cc1 [Compound 92, 1-methyl-3-((6-methyl-2-p-tolylH-imidazo[1,2-a]pyridin-3-yl)methyl)imidazolidin-2-one]	++ (percentage of inhibition of central BZD site binding is greater than 80% in the presence of 1000 nM of the compound)
CCC1=C(C)CN(Cc2c(-c3ccc(C)cc3)nc3ccc(C)cn23)C1=O [Compound 93, 3-ethyl-4-methyl-1-((6-methyl-2-p-tolyl-H-imidazo[1,2-a]pyridin-3-yl)methyl)-1H-pyrrol-2(5H)-one]	++ (percentage of inhibition of central BZD site binding is greater than 80% in the presence of 1000 nM of the compound)
COC1=CC(=O)N(Cc2c(-c3ccc(C)cc3)nc3ccc(C)cn23)C1 [Compound 94, 4-methoxy-1-((6-methyl-2-p-tolyl-H-imidazo[1,2-a]pyridin-3-yl)methyl)-1H-pyrrol-2(5H)-one]	++ (percentage of inhibition of central BZD site binding is greater than 80% in the presence of 1000 nM of the compound)
Cc1ccc(-c2nc3ccc(C)cn3c2CN2CCCCC2=O)cc1 [Compound 95, 1-((6-methyl-2-p-tolyl-H-imidazo[1,2-a]pyridin-3-yl)methyl)piperidin-2-one]	++ (percentage of inhibition of central BZD site binding is greater than 80% in the presence of 1000 nM of the compound)
Cc1ccc(-c2nc3ccc(C)cn3c2Cn2ccccc2=O)cc1 [Compound 96, 1-((6-methyl-2-p-tolyl-H-imidazo[1,2-a]pyridin-3-yl)methyl)pyridin-2(1H)-one]	++ (percentage of inhibition of central BZD site binding is greater than 80% in the presence of 1000 nM of the compound)
Cc1ccc(-c2nc3ccc(C)cn3c2Cn2cccc(C)c2=O)cc1 [Compound 97, 3-methyl-1-((6-methyl-2-p-tolylH-imidazo[1,2-a]pyridin-3-yl)methyl)pyridin-2(1H)-one]	++ (percentage of inhibition of central BZD site binding is greater than 80% in the presence of 1000 nM of the compound)
Cc1ccc(-c2nc3ccc(C)cn3c2CN2C(=O)OC(C)(C)C2=O)cc1 [Compound 101, 5,5-dimethyl-3-((6-methyl-2-p-tolylH-imidazo[1,2-a]pyridin-3-yl)methyl)oxazolidine-2,4-dione]	++ (percentage of inhibition of central BZD site binding is greater than 80% in the presence of 1000 nM of the compound)
